Laboratory results published in patent publication US20220106288A1, “NOVEL SULFONEUREA COMPOUNDS” (INFLAZOME LIMITED, priority 2018, published 2022).
Structures can show the parent of a compound that is named as a salt.

Experiments:
[1] = target: T1, NLRP3 (Homo sapiens, UniProt Q96P20); assay: THP-1 cells pyroptosis assay; assay type: cell-based; set-up: Seed THP-1 cells (25,000cells/well) containing 1.0 μg/ml LPS in 40 μl of RPMI medium; host or cells: THP-1 cells; conditions: LPS 1 μg/ml, nigericin 5 μM, resazurin readout
T1 sequence (Q96P20 whole entry): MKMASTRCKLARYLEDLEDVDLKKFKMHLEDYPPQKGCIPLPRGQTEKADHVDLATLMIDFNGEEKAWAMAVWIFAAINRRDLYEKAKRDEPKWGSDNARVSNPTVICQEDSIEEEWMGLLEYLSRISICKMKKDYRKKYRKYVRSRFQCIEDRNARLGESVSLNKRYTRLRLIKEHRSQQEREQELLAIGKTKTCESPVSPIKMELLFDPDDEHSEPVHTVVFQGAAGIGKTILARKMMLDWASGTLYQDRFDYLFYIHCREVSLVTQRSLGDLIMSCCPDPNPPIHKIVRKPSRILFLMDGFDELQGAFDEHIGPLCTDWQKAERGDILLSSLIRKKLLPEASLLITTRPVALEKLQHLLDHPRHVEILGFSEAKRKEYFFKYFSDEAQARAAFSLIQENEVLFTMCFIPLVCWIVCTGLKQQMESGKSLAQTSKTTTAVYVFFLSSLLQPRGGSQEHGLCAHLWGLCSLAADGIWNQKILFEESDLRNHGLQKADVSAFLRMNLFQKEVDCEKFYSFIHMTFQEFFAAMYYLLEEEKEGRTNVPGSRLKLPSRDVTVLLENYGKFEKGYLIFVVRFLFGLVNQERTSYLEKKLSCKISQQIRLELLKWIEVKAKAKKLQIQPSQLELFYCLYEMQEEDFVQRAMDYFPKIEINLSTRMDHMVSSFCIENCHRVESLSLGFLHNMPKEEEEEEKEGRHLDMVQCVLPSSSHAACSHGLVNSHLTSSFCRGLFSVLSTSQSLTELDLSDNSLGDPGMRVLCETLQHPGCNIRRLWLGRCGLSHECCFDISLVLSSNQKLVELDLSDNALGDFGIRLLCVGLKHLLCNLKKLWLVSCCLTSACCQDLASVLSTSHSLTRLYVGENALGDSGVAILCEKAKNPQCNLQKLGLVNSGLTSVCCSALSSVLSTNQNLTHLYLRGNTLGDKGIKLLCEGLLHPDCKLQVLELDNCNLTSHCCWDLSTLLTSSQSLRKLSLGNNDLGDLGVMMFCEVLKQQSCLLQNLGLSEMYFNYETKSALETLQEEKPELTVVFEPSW
Protocol: The cells were routinely passaged and grown to confluency (˜10^6 cells/ml). On the day of the experiment, THP-1 cells were harvested and resuspended into RPMI medium (without FBS). The cells were then counted and viability (>90%) checked by Trypan blue (Sigma #T8154). […] To this diluted cell solution was added LPS (Sigma #L4524) to give a 1 μg/ml Final Assay Concentration (FAC). 40 μl of the final preparation was aliquoted into each well of a 96-well plate. The plate thus prepared was used for compound screening.
The following method step-by-step assay was followed for compound screening. • 1. […] Incubate for 3 hrs at 37° C., 5% CO2 • 4. Add 5 μl nigericin (Sigma #N7143) (FAC 5 μM) to all wells • 5. Incubate for 1 hr at 37° C., 5% CO2 • 6. At the end of the incubation period, spin plates at 300×g for 3 mins and remove supernatant • 7. Then add 50 μl of resazurin (Sigma #R7017) (FAC 100 μM resazurin in RPMI medium without FBS) and incubate plates for a further 1-2 hrs at 37° C. and 5% CO2 • 8. […] IC50 data is fitted to a non-linear regression equation (log inhibitor vs response-variable slope 4-parameters)

[2] = target: T1, NLRP3; assay: Human whole blood IL-1β release assay; assay type: cell-based; set-up: Human whole blood in Li-heparin tubes was obtained from healthy donors from a volunteer donor panel; from tissue; host or cells: human whole blood from healthy donors; conditions: LPS 1 μg/ml, nigericin 10 μM, IL-1β AlphaLisa, read-out: HWB IC50
Protocol: For systemic delivery, the ability to inhibit NLRP3 when the compounds are present within the bloodstream is of great importance. For this reason, the NLRP3 inhibitory activity of a number of compounds in human whole blood was investigated in accordance with the following protocol.
Human whole blood in Li-heparin tubes was obtained from healthy donors from a volunteer donor panel. • 1. […] Incubate for 3 hrs at 37° C., 5% CO2 • 4. Add 10 μl nigericin (Sigma #N7143) (10 μM FAC) to all wells • 5. Incubate for 1 hr at 37° C., 5% CO2 • 6. At the end of the incubation period, spin plates at 300 ×g for 5 mins to pellet cells and remove 20 μl of supernatant and add to 96-well v-bottom plates for IL-1β analysis (note: these plates containing the supernatants can be stored at −80° C. to be analysed at a later date) • 7. IL-1β was measured according to the manufacturer protocol (Perkin Elmer-AlphaLisa IL-1 Kit AL220F-5000) • 8. IC50 data is fitted to a non-linear regression equation (log inhibitor vs response-variable slope 4-parameters)

Row | Compound | IC50 [1] [nM] | IC50 [2] [nM]
1 | Cc1nc(C(C)C)c(NC(=O)NS(=O)(=O)N(C)C2CCN(C)C2)n1-c1ccncc1 (centres unmarked) [Example 49, 1-(5-Isopropyl-2-methyl-3-(4-pyridyl)imidazol-4-yl)-3-(methyl-(1-methylpyrrolidin-3-yl)sulfamoyl)urea] | 5000 to 10000 | 
2 | CCOc1cc(-c2c(C)cc3c(c2NC(=O)NS(C)(=O)=O)CCC3)ccn1 [Example 5] | ≤ 250 | 250 to 500
3 | Cc1cc2c(c(NC(=O)NS(C)(=O)=O)c1-c1ccnc(OC3CCN(C)CC3)c1C)CCC2 [Example 20] | 250 to 500 | 250 to 500
4 | Cc1cc2c(c(NC(=O)NS(=O)(=O)c3cc(C(C)(C)O)co3)c1-c1ccnc(OC3CCN(C)CC3)c1)CCC2 [Example 45] | ≤ 250 | 500 to 1000
5 | Cc1cc2c(c(NC(=O)NS(C)(=O)=O)c1-c1ccnc(C#N)c1)CCC2 [Example 36] | 500 to 1000 | 500 to 1000
6 | COc1cc(-c2c(C)cc3c(c2NC(=O)NS(=O)(=O)c2ccccc2)CCC3)ccn1 [Example 11] | ≤ 250 | 1000 to 2000
7 | Cc1cc2c(c(NC(=O)NS(=O)(=O)C3CC3)c1-c1ccnc(OC3CCN(C)CC3)c1)CCC2 [Example 21] | ≤ 250 | ≤ 250
8 | [2H]C([2H])([2H])Oc1cc(-c2c(C)c(F)cc(C(C)C)c2NC(=O)NS(C)(=O)=O)ccn1 [Example 8] | 250 to 500 | 500 to 1000
9 | Cc1cc2c(c(NC(=O)NS(=O)(=O)c3ccn(C(C)C)n3)c1-c1ccnc(OC3CCN(C)CC3)c1)CCC2 [Example 44] | ≤ 250 | 250 to 500
10 | COc1cc(-c2c(F)c(F)cc(C(C)C)c2NC(=O)NS(C)(=O)=O)ccn1 [Example 33] | 500 to 1000 | 1000 to 2000
11 | COc1cc(-n2c(C)nc(C(C)C)c2NC(=O)NS(=O)(=O)c2cc(C(C)(C)O)co2)ccn1 [Example 48, 4-(2-Hydroxypropan-2-yl)-N-((4-isopropyl-1-(2-methoxypyridin-4-yl)-2-methyl-1H-imidazol-5-yl)carbamoyl)furan-2-sulfonamide] | 250 to 500 | 250 to 500
12 | [2H]C([2H])([2H])Oc1cc(-c2c(C)cc3c(c2NC(=O)NS(C)(=O)=O)CCC3)ccn1 [Example 10] | ≤ 250 | 250 to 500
13 | COc1cc(-c2c(C)cc3c(c2NC(=O)NS(=O)(=O)c2ccn(C4CC4)n2)CCC3)ccn1 [Example 35] | ≤ 250 | 500 to 1000
14 | Cc1cc2c(c(NC(=O)NS(C)(=O)=O)c1-c1ccnc(OC(F)F)c1)CCC2 [Example 3] | ≤ 250 | 500 to 1000
15 | COc1cc(-c2c(C)cc3c(c2NC(=O)NS(C)(=O)=O)CCC3)ccn1 [Example 40, N-((5-(2-Methoxypyridin-4-yl)-6-methyl-2,3-dihydro-1H-inden-4-yl)carbamoyl)methanesulfonamide, sodium salt] | ≤ 250 | 250 to 500
16 | Cc1nc(C(C)C)c(NC(=O)NS(=O)(=O)c2ccn(C3CC3)n2)n1-c1ccncc1 [Example 47, 1-Cyclopropyl-N-((4-isopropyl-2-methyl-1-(pyridin-4-yl)-1H-imidazol-5-yl)carbamoyl)-1H-pyrazole-3-sulfonamide] | 250 to 500 | 250 to 500
17 | Cc1cc(-c2c(C)cc3c(c2NC(=O)NS(C)(=O)=O)CCC3)ccn1 [Example 1, N-((6-Methyl-5-(2-methylpyridin-4-yl)-2,3-dihydro-1H-inden-4-yl)carbamoyl)methanesulfonamide] | 500 to 1000 | 500 to 1000
18 | Cc1cc2c(c(NC(=O)NS(C)(=O)=O)c1-c1ccnc(OC3CCOCC3)c1)CCC2 [Example 22] | ≤ 250 | ≤ 250

Row | Compound | IC50 [1] [nM] | IC50 [2] [nM]
19 | Cc1cc2c(c(NC(=O)NS(C)(=O)=O)c1-c1ccnc(OC3CCCCC3)c1)CCC2 [Example 16] | ≤ 250 | 1000 to 2000
20 | Cc1nc(C(C)C)c(NC(=O)NS(=O)(=O)c2cc(C(C)(C)O)co2)n1-c1ccncc1 [Example 46, 4-(2-Hydroxypropan-2-yl)-N-((4-isopropyl-2-methyl-1-(pyridin-4-yl)-1H-imidazol-5-yl)carbamoyl)furan-2-sulfonamide, ammonium salt] | ≤ 250 | ≤ 250
21 | COc1cc(-c2c(NC(=O)NS(C)(=O)=O)c(C(C)C)cc(F)c2C2CC2)ccn1 [Example 31] | 500 to 1000 | 1000 to 2000
22 | COc1cc(-c2c(C)cc3c(c2NC(=O)NS(=O)(=O)N(C)C)CCC3)ccn1 [Example 13] | ≤ 250 | 500 to 1000
23 | COc1cc(-c2c(C)c(F)cc(C(C)C)c2NC(=O)NS(=O)(=O)c2ccn(C3CC3)n2)ccn1 [Example 29] | ≤ 250 | 1000 to 2000
24 | Cc1cc2c(c(NC(=O)NS(C)(=O)=O)c1-c1ccncc1)CCC2 [Example 2] | ≤ 250 | 250 to 500
25 | Cc1cc2c(c(NC(=O)NS(=O)(=O)N(C)C)c1-c1ccnc(OC3CCN(C)CC3)c1)CCC2 [Example 26] | ≤ 250 | ≤ 250
26 | CCc1c(F)cc(C(C)C)c(NC(=O)NS(C)(=O)=O)c1-c1ccnc(OC)c1 [Example 38] | 250 to 500 | 1000 to 2000
27 | Cc1cc2c(c(NC(=O)NS(C)(=O)=O)c1-c1ccnc(OC3CCN(C)CC3)c1)CCC2 [Example 28] | ≤ 250 | ≤ 250
28 | COc1cc(-c2c(C)cc3c(c2NC(=O)NS(=O)(=O)C2CC2)CCC3)ccn1 [Example 12] | ≤ 250 | 500 to 1000
29 | COc1cc(-c2c(C3CC3)cc3c(c2NC(=O)NS(C)(=O)=O)CCC3)ccn1 [Example 34] | ≤ 250 | 1000 to 2000
30 | Cc1cc2c(c(NC(=O)NS(C)(=O)=O)c1-c1ccnc(O[C@H]3CC[C@@H](O)CC3)c1)CCC2 [Example 6] | ≤ 250 | ≤ 250
31 | CCS(=O)(=O)NC(=O)Nc1c2c(cc(C)c1-c1ccnc(OC)c1)CCC2 [Example 42] | ≤ 250 | 250 to 500
32 | Cc1cc2c(c(NC(=O)NS(=O)(=O)C(C)(C)C)c1-c1ccnc(OC3CCN(C)CC3)c1)CCC2 [Example 18] | ≤ 250 | 2000 to 5000
33 | COCC(C)Oc1cc(-c2c(C)cc3c(c2NC(=O)NS(C)(=O)=O)CCC3)ccn1 (centres unmarked) [Example 25] | ≤ 250 | 250 to 500
34 | Cc1cc2c(c(NC(=O)NS(C)(=O)=O)c1-c1ccnc(OC3CC3)c1)CCC2 [Example 4] | ≤ 250 | 250 to 500
35 | COc1cc(-c2c(C)c(F)cc(C(C)C)c2NC(=O)NS(C)(=O)=O)ccn1 [Example 7] | 250 to 500 | 500 to 1000
36 | Cc1cc2c(c(NC(=O)NS(=O)(=O)c3ccccc3)c1-c1ccnc(OC3CCN(C)CC3)c1)CCC2 [Example 19] | ≤ 250 | 500 to 1000
